The values below come from patent US10925858B2, “S-nitrosoglutathione (GSNO) and GSNO reductase inhibitors for use in therapy” (MUSC FOUNDATION FOR RESEARCH DEVELOPMENT, priority 2017, dated 2021).

One test relates to cerebral microvessels. Put plainly: Transmission electron microscopy, ultrastructure of microvessels of diabetic mice. The following applies: cortex and hippocampus, GSNO supplemented diabetic animals, 8 weeks. In kind it is in vivo. The method, then: (§1) Male laca mice weighing between 28-32 g were procured from the Central Animal House, Panjab University, Chandigarh. The animals were acclimatized and were fed with standard pellet diet and water ad libitum. The experimental protocols were approved by the Institutional Ethics Committee and were conducted according to Indian National Science Academy (INSA) guidelines for the use and care of experimental animals. The animals were divided into four groups: (i) Control animals received phosphate buffered saline (PBS) throughout the study; (ii) Control+GSNO animals were administered with GSNO 100 μg/kg body weight orally, dissolved in PBS after every 24 h for 8 weeks; (iii) Diabetic animals were injected with STZ at a dose of 40 mg/kg body weight intraperitoneally for 5 days dissolved in 0.1 mol/L citrate buffer, pH 4.5 and Diabetic+GSNO mice were administered GSNO 100 μg/kg body weight orally dissolved in PBS after every 24 h for 8 weeks after the induction of diabetes. Animals were assessed weekly for development of diabetic encephalopathy in terms of memory deficits. All experimental procedures were done on mice at the end of study. Transmission electron microscopy was carried out by the method described by Gao et al., (2005). […]

Test [1] concerns cell adhesion molecules (ICAM-1 and VCAM-1). Nature of the test: Western blotting, protein expression of cell adhesion molecules in isolated microvessels of diabetic mice. The class given is in vivo. The settings on record: cortex and hippocampus microvessels, GSNO vs untreated diabetic group. The method, then: as §1, with “The microvessels were isolated” for “Transmission electron microscopy was carried out”, “Brooks” for “Gao”
For orientation: Immunoblotting shows a protein as a band on a membrane.

Structures are written as SMILES.

As for `N[C@@H](CCC(=O)N[C@@H](CSN=O)C(=O)NCC(=O)O)C(=O)O` [GSNO, S-nitrosoglutathione], the ultrastructure of microvessels result with cerebral microvessels is given as “improved the ultrastructure of the damaged microvessels”. Also, in test [1], the “protein expression of ICAM-1” value is listed as “significantly mitigate” and the “protein expression of VCAM-1” value was “significantly mitigate”.
